Measurements published in article PMC9781104 (Pharmaceutics, 2022).
Like-named read-outs stand apart in the source and are kept apart here.

Key:
[1] = cited from earlier work
[2] = Bioavailability calculated from literature AUC0-24h after oral and intravenous clomiphene citrate; format: in vivo, human; details: 50 mg clomiphene citrate; intravenous study n = 2
Excerpt: Both isomers show highly distinct pharmacokinetic characteristics and also differ in affinity to the target receptor [22, 28]. […] While the calculated value from the literature is based on an intravenous study with a small number of study participants (n = 2), a low bioavailability can be supported with the developed PBPK model.

[3] = tested on: CYP2D6; details: cited from earlier work; for Km: literature value adapted with fu,inc
[4] = Pharmacokinetic panel study in CYP2D6-genotyped healthy female volunteers (observed plasma AUClast/Cmax, DGI and DD(G)I with clarithromycin or paroxetine); format: in vivo, human
Description: Clinical data from a recently performed pharmacokinetic panel study (EudraCT-Nr.: 2009-014531-20, ClinicalTrails.gov: NCT01289756) were used for PBPK model development. The study protocol, patient information sheet and consent form were approved by the Ethics Committee of the University of Tübingen and the German Federal Institute for Drugs and Medical Devices (BfArM). All study participants had signed an informed consent form.
The study was conducted in 20 healthy, Caucasian, premenopausal female volunteers that were genotyped for CYP2D6 polymorphisms and subsequently assigned to predicted phenotypes according to the respective CYP2D6 activity score (AS) as depicted in Table 1 [17, 18]. […] After a wash-out phase of at least three weeks, clomiphene was administered concomitantly with the strong CYP3A4 inhibitor clarithromycin [19]. Here, the participants received 500 mg clarithromycin twice daily for four days. On day 5, a single dose of clomiphene citrate was administered together with 500 mg clarithromycin. Finally, in the third period, all subjects received clomiphene citrate together with the strong CYP2D6 inhibitor paroxetine. Here, 40 mg paroxetine was administered once daily for two days. On day 3, participants received a single dose of clomiphene citrate concomitantly with 40 mg paroxetine (Figure 1).
For the evaluation of DGI and DD(G)I effects, the predicted AUClast and Cmax effect ratios were calculated according to Equations (4) and (5) and compared with the corresponding observed values. Here, model performance was assessed using the prediction acceptance limits proposed by Guest et al. with 1.25-fold variability. (4) AUClast, AS=i ratio=AUClast, effect, AS=i/AUClast, control (5) Cmax, AS=i ratio=Cmax, effect, AS=i/Cmax, control
For the calculation of DGI ratios, AUClast, effect, AS=i and Cmax, effect, AS=i represent the AUClast and Cmax for CYP2D6 AS = i, while AUClast, control and Cmax, control are the AUClast and Cmax values for the NM (AS = 2) population. For the calculation of DD(G)I ratios, AUClast, effect, AS=i and Cmax, effect, AS=i represent the AUClast and Cmax for the CYP2D6 AS = i in the DD(G)I scenario with clarithromycin or paroxetine, while AUClast, control and Cmax, control are the AUClast and Cmax values for the CYP2D6 AS = i without the concomitant use of perpetrator drugs.

[5] = tested on: CYP2D6; assay: Fraction metabolized via CYP2D6 calculated from observed AUClast (PM vs NM, Equation S1); format: in vivo, human; details: calculated from observed relative AUClast increase PM vs NM
Description: Calculation of Fractions Metabolized
(§1) (normal metabolizers (NM)) [39]. […] In addition, data from
(§2) the CYP2D6 NM population in the clarithromycin DDI scenario (CYP3A4 inhibition) was used to
(§3) For this, the observed relative AUClast increase in the NM population between
(§4) the DDI scenario with CYP3A4 inhibition and the control scenario without inhibition was used,
(§5) 1 −fm = AUClast,effect,AS=iAUClast,control (S1)

[6] = tested on: CYP2B6; design: method as in ref [17, 18] of supplement; details: literature value adapted with fu,inc; ref [17, 18] of supplement; read-out: CYP2B6 Km → (E)-4-OH-Clom; cited from earlier work
[7] = tested on: CYP3A4; assay: Fraction metabolized via CYP3A4 calculated from observed AUClast (NM with vs without clarithromycin, Equation S1); format: in vivo, human; details: estimated from observed AUClast increase in NM with clarithromycin
Description: Calculation of Fractions Metabolized
as §1, §2, §3, §4
Of note, a complete CYP3A4 inhibition through clarithromycin
was assumed, given the strong and mechanism-based inhibition through clarithromycin, which was
as §5
for the NM population without concomitant clarithromycin administration.

[8] = tested on: CYP2D6; assay: In vitro scaling factors from CYP2D6 activity score-specific in vitro metabolite formation rates; format: in vitro ADME, human
Excerpt: Here, kcat, AS=i represents the catalytic rate constant for CYP2D6 AS = i, kcat, AS=2 is the catalytic rate constant for the NM population and IVSFi is the corresponding in vitro scaling factor (IVSF).
S2. Drug-Gene-Interaction (DGI) Modeling
S2.1. CYP2D6 in vitro Scaling Factors
The estimated CYP2D6 kcat values for the NM population were extrapolated to the intermediate metabolizers (IM) (AS=0.5, AS=0.75 and AS=1) and ultrarapid metabolizers (UM) populations according to Equation 1 in the main manuscript, using in vitro scaling factors (IVSFs). Determination of IVSFs were based on AS-specific in vitro metabolite formation rates relative to the corresponding formation rate in NM as a reference. The respective IVSFs for each CYP2D6-dependent pathway are depicted in Table S8. Measured in vitro data for (E)-4-OH-Clom and (E)-4-OH-DE-Clom AS-specific formation rates were available, while mean values were assumed for the remaining CYP2D6-dependent metabolic pathways.
Table S8. Employed in vitro scaling factors (IVSFs) for individual CYP2D6 activity scores. […]

[9] = tested on: CYP3A4; design: method as in ref [17, 18] of supplement; details: literature value adapted with fu,inc; ref [17, 18] of supplement; read-out: CYP3A4 Km → (E)-DE-Clom; cited from earlier work

bioavailability calculated from reported AUC0-24h after oral and intravenous application [2]: ~ 6.3% | order of AUClast across CYP2D6 phenotypes ([4]; DGI setting): AUCPM > AUCIM > AUCNM > AUCUM | exposure increase in clarithromycin DD(G)I scenario vs control ([4]; NM): ~ 15% | AUClast increase with concomitant paroxetine ([4]; all phenotypes except PM): 2.5–12 fold | AUClast change during CYP3A4 inhibition ([4]; clarithromycin, all phenotypes): slight increase | fraction metabolized (fm) via CYP2D6 [5]: ~90% | fraction metabolized (fm) via CYP3A4 [7]: approximately 13% | IVSF, CYP2D6-mediated pathway → (E)-DE-Clom ([8]; AS=0, mean value assumed): 0 | IVSF, CYP2D6-mediated pathway → undef. ([8]; AS=0, mean value assumed): 0 | IVSF, CYP2D6-mediated pathway → (E)-4-OH-Clom ([8]; AS=0, relative to NM, from in vitro formation rates, supplement ref [17]): 0 | IVSF, CYP2D6-mediated pathway → (E)-DE-Clom ([8]; AS=0.5, mean value assumed): 0.17 | IVSF, CYP2D6-mediated pathway → undef. ([8]; AS=0.5, mean value assumed): 0.17 | IVSF, CYP2D6-mediated pathway → (E)-4-OH-Clom ([8]; AS=0.5, relative to NM, from in vitro formation rates, supplement ref [17]): 0.19 | IVSF, CYP2D6-mediated pathway → (E)-DE-Clom ([8]; AS=0.75, mean value assumed): 0.23 | IVSF, CYP2D6-mediated pathway → undef. ([8]; AS=0.75, mean value assumed): 0.23 | IVSF, CYP2D6-mediated pathway → (E)-4-OH-Clom ([8]; AS=0.75, relative to NM, from in vitro formation rates, supplement ref [17]): 0.27 | IVSF, CYP2D6-mediated pathway → (E)-DE-Clom ([8]; AS=1, mean value assumed): 0.51 | IVSF, CYP2D6-mediated pathway → undef. ([8]; AS=1, mean value assumed): 0.51 | IVSF, CYP2D6-mediated pathway → (E)-4-OH-Clom ([8]; AS=1, relative to NM, from in vitro formation rates, supplement ref [17]): 0.57 | IVSF, CYP2D6-mediated pathway → (E)-4-OH-Clom ([8]; AS=2 (NM, reference)): 1 | IVSF, CYP2D6-mediated pathway → (E)-DE-Clom ([8]; AS=2 (NM, reference)): 1 | IVSF, CYP2D6-mediated pathway → undef. ([8]; AS=2 (NM, reference)): 1 | IVSF, CYP2D6-mediated pathway → (E)-DE-Clom ([8]; AS=3, mean value assumed): 1.41 | IVSF, CYP2D6-mediated pathway → undef. ([8]; AS=3, mean value assumed): 1.41 | IVSF, CYP2D6-mediated pathway → (E)-4-OH-Clom ([8]; AS=3, relative to NM, from in vitro formation rates, supplement ref [17]): 1.52
Structure (SMILES): CCN(CC)CCOc1ccc(/C(=C(/Cl)c2ccccc2)c2ccccc2)cc1 [(E)-Clom, (E)-clomiphene, reference compound]
Solubility (pH 6.8) ([1]; pH 6.8, ref [24] of supplement): 0.0138 mg/ml | pKa (base), literature ([1]; ref [23], [30], [34], [38] of supplement (ChemAxon Chemicalize)): 9.31 | intrinsic clearance of CYP2D6 pathway to (Z)-3-hydroxyclomiphene compared to formation of (E)-4-OH-Clom ([3]; higher, ref [19] of supplement): 1.8 fold | Km ([3]; ref [17, 18] of supplement, read-out: CYP2D6 Km → (E)-DE-Clom): 0.78 µM | Km ([3]; ref [19] ((E)-Clom, (E)-4-OH-Clom), [17, 18] ((E)-DE-Clom) of supplement, read-out: CYP2D6 Km → undef.): 0.03 µM | Km ([3]; ref [19] of supplement, read-out: CYP2D6 Km → (E)-4-OH-Clom): 0.13 µM | Km [6]: 0.6 µM | Km [9]: 0.78 µM
